Measurements published in US4960790A, “Derivatives of taxol, pharmaceutical compositions thereof and methods for the preparation thereof” (University of Kansas, priority 1989, dated 1990).
Where a name gives a salt, the structure may show the parent alone. Read-outs that look alike come from different tables or passages of the source.

Columns and labels:
B-16 melanoma cells = assay: In vitro B16 melanoma cell proliferation; format: cell-based; conditions: rank order
Method: These studies were conducted according to standard procedures as described in Donoso and Himes, Cancer Biochem. Biophysics, vol. 7, (1984), p. 133.

[1] = Chemical stability in buffer or water; format: physicochemical
Method: The compound was subjected to stability studies according to the following procedures.
(§1) Stabilities of derivatives at various pHs were studied at 25° and 37°. The plasma studies were conducted at 37° in rat and human plasma. Human plasma was obtained from Watkins Hospital and rat plasma was obtained from the Animal Care Unit of the University of Kansas. The derivative concentration used was around 20-25 μg/ml. A stock solution of the compound was prepared at 0.8-1.0 mg/mL and was added to plasma to give the desired concentration (20-25 μg/mL). One hundred microliter samples were removed and was quenched with 250 uL. acetonitrile and centrifuged to precipitate the plasma proteins. The degradation kinetics were studied by HPLC plotting peak area vs. time. The t90 and t50 were calculated. Both chemical and plasma studies were followed by high performance liquid chromatography using a RP-8 column (15 cm) and a precolumn (5 cm). The detector was set at 227 nm. The mobile phase consisted of 0.02M acetate (pH 5): acetonitrile 50:50 or 35:65 and the flow rate ranged from 1-1.5 mL/min or the same solvents containing 0.001M tetrabutylammoniumydrogensulphate and a flow rate of 1 mL/min.
The identity of this peak was further confirmed by the degradation studies of the new derivatives. Thus, 2'(DMG) taxol was incubated with water at 37° and the product was concentrated and purified by preparative TLC. The product after purification was analyzed by HPLC and spectroscopic methods.

microtubule assembly = assay: In vitro microtubule assembly kinetics; format: biochemical; conditions: rank order
Method: (A) In vitro Microtubule Assembly Kinetics Studies
The microtubule assembly study was conducted using both 2' and 7-derivatives according to the in vitro procedures disclosed, for example, in Mellado et al., Biochemical and Biophysical Research Communications, Vol. 124, No. 2 (1984), pp. 329-336; Magri et al., J. Org. Chem., 51, 797-802 (1986); and Parness et al., Biochemical and Biophysical Research Communications, Vol. 105, No. 3, pp. 1082-1091 (1982).

[2] = tested on: human mammary carcinoma MX-1 xenograft; assay: Subrenal capsule human mammary carcinoma MX-1 xenograft in mice; conditions: for % T/C: Q4D Days 1, 5, 9; for % T/C / # OF ANMLS ALIVE CALC/TOTAL / Average tumor WEIGHT CHANGE (DELTA) / Average tumor weight, FINAL: Day 11; for ANML BODY WT DIFF (test minus control) / TEST BODY WT CHG / # OF ANMLS ALIVE CALC/TOTAL / Average tumor WEIGHT CHANGE (DELTA) / Average tumor weight, FINAL: Q4D; for ANML BODY WT DIFF (test minus control) / TEST BODY WT CHG: Day 1 to 11
From the text: The procedures followed are those described at pages 23-24 of NIH Publication No. 84-2635, In Vivo Cancer Model (February 1984).
In the procedure, test groups of mice (6 mice per test group) and control groups of 12 mice per group are utilized. A tumor fragment (human mammary carcinoma MX-1 xenograft), is implanted under the membranous covering of the kidney of each mouse.
Day 0: Anesthetize animals. Record body weight (Weigh Day 1). Implant tumor, measure and record. Randomize animals after they recover from the anesthetic. Run bacterial cultures. Determine solubilities of test agent. Record deaths daily.
Day 1: Check cultures. Discard experiment if contaminated. Prepare test materials. Initiate test agent injections (in the nape of the neck) based on individual body weight. Treatment is Q4D on Days 1, 5, and 9. Prepare test agent fresh on each injection day and administer based on individual body weight for that day.
Days 5 and 9: Prepare test agent fresh on each injection day and administer based on individual body weight for that day.
Day 11: End and evaluate experiment. Record body weights (Weigh Day 2). Measure tumor in OMU's (Ocular Micrometer Unit--10 OMU's=1 mm) and record.
The parameter measured is mean tumor weight change (delta) based on length and width measurements in millimeters. Mean animal body weights are computed for Day 1 and Day 11, compute T/C for all test groups with>65% survivors on Day 11. An excessive body weight change difference (test minus control) may also be used in evaluating toxicity. The dimensions are measured and recorded in Ocular Micrometer Units (OMU). A computer is utilized for the following:
(1) Converts OMU's to millimeters (mm).
(2) Calculates tumor weights (mgs) from tumor dimensions (mm×mm) following the formula for the volume of a prolate ellipsoid: [formula] (3) Calculates the change (delta) in mean tumor weight for each group of mice:
Change in Mean Tumor Weight=Mean Tumor WeightFINAL -Mean Tumor WeightINITIAL.
(4) Calculates the change (delta) in mean tumor weight for test (T) and control (C) groups.
(5) Calculates T/C% for all test groups with>65% survivors on Final Evaluation Day: [formula]

[3] = Plasma stability, human plasma; format: in vitro ADME; conditions: 37° C.
Method: as §1, with “The derivative concentration used was around 20-25 μg/ml. A stock solution of the compound was prepared at 0.8-1.0 mg/mL and was added to plasma to give the desired concentration (20-25 μg/mL).” left out

Solubility = format: physicochemical; conditions: read-out: Solubility
[4] = Plasma stability, rat plasma; format: in vitro ADME; conditions: rat plasma (20 μg/mL), 37° C.
Method: as §1

[5] = Plasma stability, dog plasma; format: in vitro ADME; conditions: dog plasma (20 μg/mL), 37° C.

CC(=O)O[C@H]1C(=O)[C@@]2(C)[C@H]([C@H](OC(=O)c3ccccc3)[C@]3(O)C[C@H](OC(=O)[C@H](OC(=O)CN(C)C)[C@@H](NC(=O)c4ccccc4)c4ccccc4)C(C)=C1C3(C)C)[C@]1(OC(C)=O)CO[C@@H]1C[C@@H]2O [Compound 1, 2'-(N,N-dimethylglycyl)taxol]
Order of effectiveness in B-16 melanoma cell proliferation study (B-16 melanoma cells): taxol>2'-(N,N-dimethylglycyl)taxol>2'-(N,N-diethylaminopropionyl)taxol>7-(N,N-dimethylglycyl)taxol | Identity of degradation product ([1]; incubated with water at 37°): the product is taxol | Ability to assemble microtubules (order) (microtubule assembly): taxol >7-(N,N-dimethylglycyl)taxol(11)>2'(N,N-diethylaminopropionyl)taxol(8)>2'(N,N-dimethylglycyl)taxol(2) | % T/C ([2]; Table 1, 5.90 mg/kg): -78% | ANML BODY WT DIFF (test minus control) ([2]; Table 1, 5.90 mg/kg): -.5 | TEST BODY WT CHG ([2]; Table 1, 5.90 mg/kg): -2.2 | # OF ANMLS ALIVE CALC/TOTAL ([2]; Table 1, 5.90 mg/kg): 6/6 | Average tumor WEIGHT CHANGE (DELTA) ([2]; Table 1, 5.90 mg/kg): -.48 MGS | Average tumor weight, FINAL ([2]; Table 1, 5.90 mg/kg): .13 MGS | % T/C ([2]; Table 1, 8.90 mg/kg): -53% | ANML BODY WT DIFF (test minus control) ([2]; Table 1, 8.90 mg/kg): .8 | TEST BODY WT CHG ([2]; Table 1, 8.90 mg/kg): -.9 | # OF ANMLS ALIVE CALC/TOTAL ([2]; Table 1, 8.90 mg/kg): 5/6 | Average tumor WEIGHT CHANGE (DELTA) ([2]; Table 1, 8.90 mg/kg): -.41 MGS | Average tumor weight, FINAL ([2]; Table 1, 8.90 mg/kg): .36 MGS | ANML BODY WT DIFF (test minus control) ([2]; Table 1, 13.30 mg/kg): -.6 | TEST BODY WT CHG ([2]; Table 1, 13.30 mg/kg): -2.3 | # OF ANMLS ALIVE CALC/TOTAL ([2]; Table 1, 13.30 mg/kg): 4/6 | Average tumor WEIGHT CHANGE (DELTA) ([2]; Table 1, 13.30 mg/kg): -.64 MGS | Average tumor weight, FINAL ([2]; Table 1, 13.30 mg/kg): .00 MGS | ANML BODY WT DIFF (test minus control) ([2]; Table 1, 20.00 mg/kg): -.5 | TEST BODY WT CHG ([2]; Table 1, 20.00 mg/kg): -2.2 | # OF ANMLS ALIVE CALC/TOTAL ([2]; Table 1, 20.00 mg/kg): 4/6 | Average tumor WEIGHT CHANGE (DELTA) ([2]; Table 1, 20.00 mg/kg): -.56 MGS | Average tumor weight, FINAL ([2]; Table 1, 20.00 mg/kg): .00 MGS | % T/C ([2]; Table 1, 30.00 mg/kg): TOX | TEST BODY WT CHG ([2]; Table 1, 30.00 mg/kg): -3.8 | # OF ANMLS ALIVE CALC/TOTAL ([2]; Table 1, 30.00 mg/kg): 1/6 | Average tumor weight, FINAL ([2]; Table 1, 30.00 mg/kg): .00 MGS

CC(=O)O[C@H]1C(=O)[C@]2(C)[C@@H](OC(=O)CN(C)C)C[C@H]3OC[C@@]3(OC(C)=O)[C@H]2[C@H](OC(=O)c2ccccc2)[C@]2(O)C[C@H](OC(=O)[C@H](O)[C@@H](NC(=O)c3ccccc3)c3ccccc3)C(C)=C1C2(C)C [Compound 8, Methanesulphonic acid salt of 7-(dimethylglycyl)taxol]
half-life ([3]; human plasma (10 μg/mL)): 24.4 h | half-life ([3]; human plasma (20 μg/mL)): 27.7 h | half-life ([1]; 0.02 M Acetate, pH 3.5, 25° C.): 3400 h | half-life ([1]; 0.02 M Phosphate, pH 7.4, 25° C.): 33.8 h | half-life ([1]; 0.02 M acetate, pH 4.5, 25° C.): 1720 h | solubility (Solubility): > 2000 µg/mL | half-life [4]: 17.3 h

CC(=O)O[C@H]1C(=O)[C@@]2(C)[C@H]([C@H](OC(=O)c3ccccc3)[C@]3(O)C[C@H](OC(=O)[C@H](OC(=O)CN(C)C)[C@@H](NC(=O)c4ccccc4)c4ccccc4)C(C)=C1C3(C)C)[C@]1(OC(C)=O)CO[C@@H]1C[C@@H]2O [Compound 2, Methanesulphonic acid salt of 2'-(N,N-dimethylglycyl)taxol]
half-life ([3]; human plasma (20 μg/mL)): 3.31 h | half-life ([1]; 0.02 M Acetate (0.1 mg/mL), pH 3.5, 25° C.): 96.2 h | half-life ([1]; 0.02 M Acetate (0.1 mg/mL), pH 4.5, 25° C.): 55.4 h | half-life ([1]; water (2 mg/mL), pH 3.8, 37° C.): 89.8 h | solubility (Solubility; Clear): 2000 µg/mL | solubility (Solubility; Slightly Hazy): 15000 µg/mL | half-life [5]: 2.03 h | half-life [4]: 0.0508 h
